Assay results as given in US20260053834A1, “COVALENT MODIFIERS OF AKT1 AND USES THEREOF” (Terremoto Biosciences, Inc., priority 2023, published 2026).

Key:
[1] = tested on: LAPC4 prostate cancer cells, which express the AKT1 E17K allele; assay: Antiproliferative effects in LAPC4 cells (CellTiter Glo, 72 h); type: cell-based; conditions: Homo sapiens, LAPC4, 72 h, read-out: LAPC4 proliferation IC50: GeoMean IC50
Summary of the method: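 IC50 values come from Hill-equation fitting of luminescence (cellular ATP) after 72 h compound exposure. Treated wells held 1,000 cells each, with compound delivered as DMSO dilutions. Culture medium was IMDM plus 12% FBS.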

AKT1 E17K = target: T1, AKT1 E17K (Homo sapiens, UniProt P31749, E17K); assay: Live cell target engagement by NanoBRET competitive probe displacement, AKT1 E17K; type: binding; conditions: transfected HEK293 cells, 2 h at 37° C., read-out: AKT1 E17K IC50: GeoMean IC50
T1 construct: expressed in transfected cells; host or cells: HEK293
T1 sequence (P31749 whole entry E17K): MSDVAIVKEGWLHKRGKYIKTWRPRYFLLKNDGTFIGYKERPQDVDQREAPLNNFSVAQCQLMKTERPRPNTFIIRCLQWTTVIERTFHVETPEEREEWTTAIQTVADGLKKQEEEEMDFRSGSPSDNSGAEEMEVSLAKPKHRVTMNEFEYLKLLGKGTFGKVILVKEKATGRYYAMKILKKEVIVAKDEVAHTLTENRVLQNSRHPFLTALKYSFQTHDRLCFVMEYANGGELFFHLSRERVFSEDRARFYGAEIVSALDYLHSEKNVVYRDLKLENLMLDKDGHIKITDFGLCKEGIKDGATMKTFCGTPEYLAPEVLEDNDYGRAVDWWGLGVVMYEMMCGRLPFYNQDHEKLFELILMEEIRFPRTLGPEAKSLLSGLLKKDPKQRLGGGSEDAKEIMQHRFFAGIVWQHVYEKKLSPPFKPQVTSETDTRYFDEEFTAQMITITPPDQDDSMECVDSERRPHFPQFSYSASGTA

AKT1 WT = target: T2, AKT1 WT (Homo sapiens, UniProt P31749); assay: Live cell target engagement by NanoBRET competitive probe displacement, AKT1 WT; type: binding; conditions: transfected HEK293 cells, 2 h at 37° C., read-out: AKT1 WT IC50: GeoMean IC50
T2 construct: expressed in transfected cells; host or cells: HEK293
T2 sequence (P31749 whole entry): as the sequence (P31749 whole entry E17K) above, with K17E counted along it

AKT2 = target: T3, AKT2 (Homo sapiens, UniProt P31751); assay: Live cell target engagement by NanoBRET competitive probe displacement, AKT2; type: binding; conditions: transfected HEK293 cells, 2 h at 37° C., read-out: AKT2 IC50: GeoMean IC50
T3 construct: expressed in transfected cells; host or cells: HEK293
T3 sequence (P31751 whole entry): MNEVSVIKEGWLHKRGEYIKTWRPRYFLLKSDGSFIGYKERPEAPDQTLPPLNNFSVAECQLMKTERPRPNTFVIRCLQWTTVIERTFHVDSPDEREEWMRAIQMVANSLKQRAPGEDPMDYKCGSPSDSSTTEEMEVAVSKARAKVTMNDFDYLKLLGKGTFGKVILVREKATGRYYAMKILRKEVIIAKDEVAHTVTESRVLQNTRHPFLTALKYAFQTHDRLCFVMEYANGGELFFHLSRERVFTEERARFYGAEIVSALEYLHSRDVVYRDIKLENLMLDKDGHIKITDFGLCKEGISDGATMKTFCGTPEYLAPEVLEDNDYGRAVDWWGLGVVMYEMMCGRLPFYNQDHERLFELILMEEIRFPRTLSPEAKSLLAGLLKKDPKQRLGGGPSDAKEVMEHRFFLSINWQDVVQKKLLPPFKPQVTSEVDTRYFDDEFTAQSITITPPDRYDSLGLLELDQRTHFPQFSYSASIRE

Row | SMILES | IC50 [1] | IC50 (AKT1 E17K) | IC50 (AKT1 WT) | IC50 (AKT2)
1 | Nc1ncccc1-c1nc2ccc(-n3cccn3)nc2n1-c1ccc2c(c1)CC[C@@H]2n1cnc2cc(O)c(C=O)cc2c1=O [Example 184, 3-[(1S)-5-[2-(2-aminopyridin-3-yl)-5-(pyrazol-1-yl)imidazo[4,5-b]pyridin-3-yl]-2,3-dihydro-1H-inden-1-yl]-7-hydroxy-4-oxoquinazoline-6-carbaldehyde] | 10 to 100 nM | 10 to 100 nM | 10 to 100 nM | 100 to 2000 nM
2 | N#Cc1cc(O)c(C=O)cc1C(=O)N[C@H]1CCc2cc(-n3c(-c4cccnc4N)nc4ccc(-n5cccn5)nc43)ccc21 [Example 250, (S)—N-(5-(2-(2-aminopyridin-3-yl)-5-(1H-pyrazol-1-yl)-3H-imidazo[4,5-b]pyridin-3-yl)-2,3-dihydro-1H-inden-1-yl)-2-cyano-5-formyl-4-hydroxybenzamide] | ≥ 2000 nM | ≥ 2000 nM | ≥ 2000 nM | ≥ 2000 nM
3 | Nc1ncccc1-c1nc2ccc(-c3ccccn3)nc2n1-c1ccc2c(c1)CC[C@@H]2NC(=O)c1ccc(O)c(C=O)c1 [Example 25, (S)—N-(5-(2-(2-aminopyridin-3-yl)-5-(pyridin-2-yl)-3H-imidazo[4,5-b]pyridin-3-yl)-2,3-dihydro-1H-inden-1-yl)-3-formyl-4-hydroxybenzamide] | 10 to 100 nM | 10 to 100 nM | 10 to 100 nM | 100 to 2000 nM
4 | Nc1ncccc1-c1nc2ccc(-n3nccn3)nc2n1-c1ccc2c(c1)CC[C@@H]2NC(=O)c1cc(C=O)c(O)c(F)c1F [Example 118, (S)—N-(5-(2-(2-aminopyridin-3-yl)-5-(2H-1,2,3-triazol-2-yl)-3H-imidazo[4,5-b]pyridin-3-yl)-2,3-dihydro-1H-inden-1-yl)-2,3-difluoro-5-formyl-4-hydroxybenzamide] | 10 to 100 nM | 10 to 100 nM | 10 to 100 nM | 100 to 2000 nM
5 | [2H]C(=O)c1cc(C(=O)N[C@H]2CCc3cc(-n4c(-c5cccnc5N)nc5ccc(-n6cccn6)nc54)ccc32)c(F)c(F)c1O [Example 204, (S)—N-(5-(2-(2-aminopyridin-3-yl)-5-(1H-pyrazol-1-yl)-3H-imidazo[4,5-b]pyridin-3-yl)-2,3-dihydro-1H-inden-1-yl)-2,3-difluoro-5-(formyl-d)-4-hydroxybenzamide] | 10 to 100 nM | < 10 nM | < 10 nM | 10 to 100 nM
6 | CC(=O)Nc1ccc(C(=O)N[C@H]2CCc3cc(-n4c(-c5cccnc5N)nc5ccc(C)nc54)ccc32)cc1C=O [Example 45, N-[(1S)-5-[2-(2-aminopyridin-3-yl)-5-methylimidazo[4,5-b]pyridin-3-yl]-2,3-dihydro-1H-inden-1-yl]-4-acetamido-3-formylbenzamide] | 100 to 2000 nM | 100 to 2000 nM | 100 to 2000 nM | ≥ 2000 nM
7 | Nc1ncccc1-c1nc2ccc(-c3ccccc3)nc2n1-c1ccc2c(c1)CCC2C(=O)Nc1ccc(O)c(C=O)c1 (stereo not shown) [Example 27, 5-[2-(2-aminopyridin-3-yl)-5-phenylimidazo[4,5-b]pyridin-3-yl]-N-(3-formyl-4-hydroxyphenyl)-2,3-dihydro-1H-indene-1-carboxamide] | 100 to 2000 nM | 10 to 100 nM | 100 to 2000 nM | 100 to 2000 nM
8 | N#Cc1cnn(-c2ccc3nc(-c4cccnc4N)n(-c4ccc5c(c4)CC[C@@H]5NC(=O)c4ccc(O)c(C=O)c4)c3n2)c1 [Example 90, N-[(1S)-5-[2-(2-aminopyridin-3-yl)-5-(4-cyanopyrazol-1-yl)imidazo[4,5-b]pyridin-3-yl]-2,3-dihydro-1H-inden-1-yl]-3-formyl-4-hydroxybenzamide] | 100 to 2000 nM | 10 to 100 nM | 100 to 2000 nM | 100 to 2000 nM
9 | Cc1cnc(N)c(-c2nc3ccc(-n4cccn4)nc3n2-c2ccc3c(c2)CC[C@@H]3NC(=O)c2ccc(O)c(C=O)c2)c1 [Example 167, (S)—N-(5-(2-(2-amino-5-methylpyridin-3-yl)-5-(1H-pyrazol-1-yl)-3H-imidazo[4,5-b]pyridin-3-yl)-2,3-dihydro-1H-inden-1-yl)-3-formyl-4-hydroxybenzamide] | ≥ 2000 nM | 100 to 2000 nM | 100 to 2000 nM | 100 to 2000 nM
10 | Nc1ncccc1-c1nc2ccc(-n3cccn3)nc2n1-c1ccc2c(c1)CC[C@@H]2NC(=O)c1cc(C=O)c(O)cc1-n1cccn1 [Example 205, N-[(1S)-5-[2-(2-aminopyridin-3-yl)-5-(pyrazol-1-yl)imidazo[4,5-b]pyridin-3-yl]-2,3-dihydro-1H-inden-1-yl]-5-formyl-4-hydroxy-2-(pyrazol-1-yl)benzamide] | 100 to 2000 nM | 10 to 100 nM | 10 to 100 nM | 100 to 2000 nM
11 | CCc1ccc2nc(-c3cccnc3N)n(-c3ccc4c(c3)CC[C@@H]4NC(=O)c3ccc(O)c(C=O)c3)c2n1 [Example 43, (S)—N-(5-(2-(2-aminopyridin-3-yl)-5-ethyl-3H-imidazo[4,5-b]pyridin-3-yl)-2,3-dihydro-1H-inden-1-yl)-3-formyl-4-hydroxybenzamide] | 100 to 2000 nM | 10 to 100 nM | 100 to 2000 nM | ≥ 2000 nM
12 | Nc1ncccc1-c1nc2ccc(-n3cccn3)nc2n1-c1ccc2c(c1)C(=O)C[C@@H]2NC(=O)c1ccc(O)c(C=O)c1 [Example 85, N-[(1S)-5-[2-(2-aminopyridin-3-yl)-5-(pyrazol-1-yl)imidazo[4,5-b]pyridin-3-yl]-3-oxo-1,2-dihydroinden-1-yl]-3-formyl-4-hydroxybenzamide] | ≥ 2000 nM | 100 to 2000 nM | 100 to 2000 nM | 100 to 2000 nM
13 | Cc1ccc2nc(-c3cccnc3N)n(-c3ccc4c(c3)CC[C@@H]4NC(=O)c3cc(F)c(O)c(C=O)c3)c2n1 [Example 44, (S)—N-(5-(2-(2-aminopyridin-3-yl)-5-methyl-3H-imidazo[4,5-b]pyridin-3-yl)-2,3-dihydro-1H-inden-1-yl)-3-fluoro-5-formyl-4-hydroxybenzamide] | 100 to 2000 nM | 100 to 2000 nM | 100 to 2000 nM | ≥ 2000 nM
14 | Cc1ccc2nc(-c3cccnc3N)n(-c3ccc4c(c3)CC[C@@H]4NC(=O)c3ccc(O)c(C=O)c3)c2n1 [Example 13, N-[(1S)-5-[2-(2-aminopyridin-3-yl)-5-methylimidazo[4,5-b]pyridin-3-yl]-2,3-dihydro-1H-inden-1-yl]-3-formyl-4-hydroxybenzamide] | 100 to 2000 nM | 10 to 100 nM | 100 to 2000 nM | ≥ 2000 nM
15 | Nc1ncccc1-c1nc2ccc(-n3cc(Cl)cn3)nc2n1-c1ccc2c(c1)CC[C@@H]2NC(=O)c1ccc(O)c(C=O)c1 [Example 78, N-[(1S)-5-[2-(2-aminopyridin-3-yl)-5-(4-chloropyrazol-1-yl)imidazo[4,5-b]pyridin-3-yl]-2,3-dihydro-1H-inden-1-yl]-3-formyl-4-hydroxybenzamide] | 100 to 2000 nM | 10 to 100 nM | 100 to 2000 nM | 100 to 2000 nM
16 | CS(=O)(=O)Nc1ccc(C(=O)N[C@H]2CCc3cc(-n4c(-c5cccnc5N)nc5ccc(-n6cccn6)nc54)ccc32)cc1C=O [Example 86, N-[(1S)-5-[2-(2-aminopyridin-3-yl)-5-(pyrazol-1-yl)imidazo[4,5-b]pyridin-3-yl]-2,3-dihydro-1H-inden-1-yl]-3-formyl-4-methanesulfonamidobenzamide] | 10 to 100 nM | 10 to 100 nM | 10 to 100 nM | 100 to 2000 nM
